The source of these data is publication PMC2880318 (Immunome Research, 2010).

Where a SMILES comes first, the peptide text is derived from it.

The target in the test is purified HLA-DRB1*0101 (Homo sapiens, UniProt P01903+P01911, A100R/D57E/F55L/F60I/F76Y/I96L/L162R/M171V/P40L/Q125E/R42F/V115G/Y59C). Kind of test: biochemical. Format: binding.
By IC50 is commonly meant the concentration at which inhibition is half-maximal. Lower therefore signals greater potency. The compound `CC[C@H](C)[C@H](NC(=O)[C@H](CC(C)C)NC(=O)[C@H](CO)NC(=O)[C@@H](N)C(C)C)C(=O)N[C@@H](C)C(=O)N[C@@H](C)C(=O)N[C@@H](CC(C)C)C(=O)N[C@@H](CCCCN)C(=O)NCC(=O)N[C@@H](CCSC)C(=O)N[C@H](C(=O)N[C@@H](CC(N)=O)C(=O)N[C@@H](CC(C)C)C(=O)N[C@@H](Cc1c[nH]c2ccccc12)C(=O)N[C@@H](CCCCN)C(=O)O)[C@@H](C)CC` [SABV GPC26-40] (H-VSLIAALKGMINLWK-OH) gave an IC50 of 0.47 nM. The result for `CC[C@H](C)[C@H](NC(=O)[C@@H](N)Cc1ccccc1)C(=O)N[C@H](C(=O)N[C@@H](Cc1ccccc1)C(=O)N[C@@H](CC(C)C)C(=O)N[C@@H](CC(C)C)C(=O)N[C@@H](CC(C)C)C(=O)N[C@@H](C)C(=O)NCC(=O)N[C@@H](CCCNC(=N)N)C(=O)N[C@@H](CO)C(=O)N[C@@H](CS)C(=O)N[C@@H](CO)C(=O)N[C@@H](Cc1ccc(O)cc1)C(=O)N[C@@H](CCCCN)C(=O)O)C(C)C` [WWAV GPC46-60] (H-FIVFLLLAGRSCSYK-OH) reads 1.2 nM; that for `CC[C@H](C)[C@H](NC(=O)[C@H](CC(C)C)NC(=O)[C@H](CCCCN)NC(=O)[C@@H](NC(=O)[C@H](C)NC(=O)[C@H](CCC(=O)O)NC(=O)[C@H](CC(C)C)NC(=O)[C@@H](NC(=O)[C@H](CC(=O)O)NC(=O)[C@H](CC(C)C)NC(=O)[C@@H](NC(=O)[C@H](CCCNC(=N)N)NC(=O)[C@@H](N)CC(=O)O)C(C)C)[C@@H](C)CC)C(C)C)C(=O)N[C@@H](CCCNC(=N)N)C(=O)N[C@@H](CCCCN)C(=O)O` [MACV L391-405] (H-DRVLDILEAVKLIRK-OH), 0.48 nM; that for `CSCC[C@H](NC(=O)[C@H](CCC(N)=O)NC(=O)[C@@H](NC(=O)[C@H](Cc1c[nH]c2ccccc12)NC(=O)[C@@H](N)CCCCN)C(C)C)C(=O)N[C@@H](CS)C(=O)N[C@@H](CO)C(=O)N[C@@H](CCCNC(=N)N)C(=O)N[C@H](C(=O)N[C@@H](CC(C)C)C(=O)N[C@@H](CCCCN)C(=O)N[C@@H](CC(N)=O)C(=O)N[C@@H](CO)C(=O)N[C@@H](Cc1c[nH]cn1)C(=O)N[C@@H](CCC(N)=O)C(=O)O)[C@@H](C)O` [JUNV L411-425], 1.1 nM. In the case of `CC[C@H](C)[C@H](N)C(=O)N[C@@H](CO)C(=O)NCC(=O)N[C@@H](Cc1ccc(O)cc1)C(=O)N[C@@H](CC(N)=O)C(=O)N[C@@H](Cc1ccccc1)C(=O)N[C@@H](CO)C(=O)N[C@@H](CC(C)C)C(=O)N[C@@H](CO)C(=O)N[C@@H](C)C(=O)N[C@@H](C)C(=O)N[C@H](C(=O)N[C@@H](CCCCN)C(=O)N[C@@H](C)C(=O)NCC(=O)O)C(C)C` [GTOV NP236-250] it was 0.12 nM; in that of `CC[C@H](C)[C@H](NC(=O)CNC(=O)[C@@H](NC(=O)[C@H](CC(C)C)NC(=O)[C@H](Cc1c[nH]cn1)NC(=O)[C@H](CC(C)C)NC(=O)[C@H](Cc1ccccc1)NC(=O)[C@H](CC(C)C)NC(=O)[C@H](CO)NC(=O)[C@H](C)N)C(C)C)C(=O)N1CCC[C@H]1C(=O)N[C@H](C(=O)N[C@@H](Cc1c[nH]cn1)C(=O)N[C@@H](CCCNC(=N)N)C(=O)N[C@@H](Cc1c[nH]cn1)C(=O)O)[C@@H](C)O` [MACV GPC446-460], 0.13 nM. The result for `CC[C@H](C)[C@H](NC(=O)[C@H](CCC(=O)O)NC(=O)[C@H](CO)NC(=O)[C@H](CC(C)C)NC(=O)[C@@H](NC(=O)[C@@H](NC(=O)[C@H](CCCCN)NC(=O)[C@H](CCCNC(=N)N)NC(=O)[C@H](CC(C)C)NC(=O)[C@@H](N)Cc1c[nH]cn1)C(C)C)[C@@H](C)CC)C(=O)N[C@@H](CO)C(=O)N[C@@H](Cc1ccccc1)C(=O)N[C@@H](Cc1c[nH]cn1)C(=O)N[C@@H](CC(C)C)C(=O)N[C@H](C(=O)O)C(C)C` [LCMV L946-960] (H-HLRKVILSEISFHLV-OH) reads 2.1 nM; that for `CC(C)[C@H](NC(=O)[C@H](C)NC(=O)[C@H](CCCCN)NC(=O)[C@@H]1CCCN1C(=O)[C@H](CCCCN)NC(=O)[C@@H](NC(=O)[C@H](C)NC(=O)[C@H](Cc1c[nH]c2ccccc12)NC(=O)[C@H](Cc1ccccc1)NC(=O)[C@H](Cc1ccccc1)NC(=O)[C@H](CC(N)=O)NC(=O)[C@H](CCCCN)NC(=O)[C@@H](N)CC(N)=O)C(C)C)C(=O)N[C@@H](CCCNC(=N)N)C(=O)N[C@@H](CCC(N)=O)C(=O)O` [JUNV L1711-1725], 0.06 nM. `CC[C@H](C)[C@H](NC(=O)[C@H](CC(=O)O)NC(=O)[C@H](CC(N)=O)NC(=O)[C@H](Cc1ccccc1)NC(=O)[C@@H](NC(=O)[C@H](CCCCN)NC(=O)[C@H](CCCNC(=N)N)NC(=O)[C@H](C)NC(=O)[C@H](CS)NC(=O)[C@H](CC(N)=O)NC(=O)[C@H](CCCNC(=N)N)NC(=O)[C@@H](NC(=O)[C@H](Cc1ccccc1)NC(=O)[C@H](CO)NC(=O)[C@@H](N)[C@@H](C)O)[C@@H](C)CC)C(C)C)C(=O)O` [MACV L1491-1505] returned an IC50 of 0.11 nM. With `CC[C@H](C)[C@H](NC(=O)[C@H](CC(C)C)NC(=O)[C@H](Cc1ccc(O)cc1)NC(=O)[C@@H](N)CC(=O)O)C(=O)N[C@@H](CC(C)C)C(=O)N[C@@H](CCCCN)C(=O)N[C@@H](CC(N)=O)C(=O)N[C@@H](CC(C)C)C(=O)N[C@H](C(=O)NCC(=O)N[C@@H](CC(C)C)C(=O)N[C@H](C(=O)N[C@@H](CO)C(=O)N[C@@H](C)C(=O)NCC(=O)O)C(C)C)[C@@H](C)O` [MACV L866-880], the IC50 was 0.21 nM.

In the case of `CC[C@H](C)[C@H](NC(=O)[C@@H](NC(=O)[C@H](CC(C)C)NC(=O)[C@H](C)NC(=O)[C@@H]1CCCN1C(=O)[C@H](CCSC)NC(=O)[C@H](CO)NC(=O)CNC(=O)[C@H](Cc1ccccc1)NC(=O)[C@H](CCC(N)=O)NC(=O)[C@H](CC(N)=O)NC(=O)[C@H](CC(N)=O)NC(=O)[C@H](CC(C)C)NC(=O)[C@@H](N)CCCCN)[C@@H](C)O)C(=O)N[C@@H](C)C(=O)O` [GTOV NP166-180], the concentration for half-maximal inhibition (IC50) turned out to be 0.12 nM. The result for `CC[C@H](C)[C@H](NC(=O)[C@H](Cc1ccc(O)cc1)NC(=O)[C@H](CC(=O)O)NC(=O)[C@H](CCCCN)NC(=O)[C@H](CCCNC(=N)N)NC(=O)[C@@H](N)CC(C)C)C(=O)N[C@@H](CCCCN)C(=O)N[C@@H](CCCNC(=N)N)C(=O)N[C@@H](CCC(N)=O)C(=O)NCC(=O)N[C@@H](CO)C(=O)N[C@H](C(=O)N1CCC[C@H]1C(=O)N[C@@H](CC(C)C)C(=O)N[C@@H](C)C(=O)O)[C@@H](C)O` [LCMV GPC421-435] reads 4.8 nM; that for `CC[C@H](C)[C@H](NC(=O)[C@H](CS)NC(=O)[C@H](CC(=O)O)NC(=O)[C@@H](N)CCSC)C(=O)N[C@H](C(=O)N[C@@H](Cc1ccccc1)C(=O)N[C@@H](CCC(=O)O)C(=O)N[C@@H](CO)C(=O)N[C@@H](C)C(=O)N[C@@H](CO)C(=O)N[C@@H](CCCCN)C(=O)N[C@@H](C)C(=O)N[C@@H](CCCNC(=N)N)C(=O)N[C@@H](CC(C)C)C(=O)N1CCC[C@H]1C(=O)O)[C@@H](C)CC` [LCMV NP521-535], 4.4 nM.

Turning to `CC(C)C[C@H](NC(=O)[C@H](CCC(=O)O)NC(=O)[C@H](CCCNC(=N)N)NC(=O)[C@H](CCCNC(=N)N)NC(=O)[C@H](CC(C)C)NC(=O)[C@H](C)NC(=O)[C@H](CCC(N)=O)NC(=O)[C@@H](NC(=O)[C@H](Cc1c[nH]c2ccccc12)NC(=O)[C@H](CCC(N)=O)NC(=O)[C@H](Cc1ccccc1)NC(=O)[C@H](CO)NC(=O)[C@H](CCCCN)NC(=O)[C@@H](NC(=O)[C@@H](N)CCC(=O)O)C(C)C)[C@@H](C)O)C(=O)O` [LCMV NP6-20], the midpoint of inhibition, the IC50, lay at 49 nM.

Take `CC[C@H](C)[C@H](NC(=O)[C@H](CC(C)C)NC(=O)[C@H](CCCNC(=N)N)NC(=O)[C@H](Cc1c[nH]cn1)NC(=O)[C@H](Cc1ccc(O)cc1)NC(=O)[C@H](CCC(=O)O)NC(=O)[C@H](CCC(N)=O)NC(=O)[C@@H](N)CC(=O)O)C(=O)N[C@@H](Cc1c[nH]cn1)C(=O)N[C@@H](CO)C(=O)N[C@@H](CC(C)C)C(=O)N[C@@H](CO)C(=O)N[C@@H](CCCCN)C(=O)N[C@H](C(=O)N[C@@H](CO)C(=O)O)[C@@H](C)O` [GTOV L181-195] (H-DQEYHRLIHSLSKTS-OH): the IC50 amounted to 0.34 nM. Turning to `CC[C@H](C)[C@H](NC(=O)[C@H](CC(C)C)NC(=O)[C@H](Cc1c[nH]cn1)NC(=O)[C@H](CC(=O)O)NC(=O)[C@H](CO)NC(=O)[C@H](CCC(=O)O)NC(=O)[C@H](CC(C)C)NC(=O)[C@H](CC(C)C)NC(=O)[C@H](Cc1c[nH]c2ccccc12)NC(=O)[C@H](CCC(N)=O)NC(=O)[C@H](CC(N)=O)NC(=O)[C@H](CCCNC(=N)N)NC(=O)[C@@H](N)Cc1ccccc1)C(=O)N[C@@H](CO)C(=O)N[C@@H](CCC(=O)O)C(=O)O` [WWAV GPC386-400] (H-FRNQWLLESDHLISE-OH), the 50% inhibitory concentration (IC50) is 1.6 nM. In the case of `CC(C)C[C@H](NC(=O)[C@H](CO)NC(=O)[C@@H]1CCCN1C(=O)[C@@H]1CCCN1C(=O)[C@H](C)NC(=O)[C@@H](NC(=O)[C@H](CCCNC(=N)N)NC(=O)[C@H](CCCNC(=N)N)NC(=O)[C@H](Cc1ccccc1)NC(=O)[C@H](CCC(=O)O)NC(=O)[C@H](C)NC(=O)[C@H](CO)NC(=O)[C@@H]1CCCN1)[C@@H](C)O)C(=O)N[C@@H](Cc1ccc(O)cc1)C(=O)NCC(=O)O` [MACV Z21-35] (H-PSAEFRRTAPPSLYG-OH) it was 2 nM; in that of `CC[C@H](C)[C@H](NC(=O)[C@H](CC(=O)O)NC(=O)[C@H](CC(C)C)NC(=O)[C@H](CC(C)C)NC(=O)[C@H](CCCNC(=N)N)NC(=O)[C@H](CC(=O)O)NC(=O)[C@H](CC(N)=O)NC(=O)[C@@H](NC(=O)[C@H](CC(C)C)NC(=O)[C@H](CCSC)NC(=O)[C@H](CC(C)C)NC(=O)[C@H](CCSC)NC(=O)[C@H](CCC(N)=O)NC(=O)CNC(=O)[C@@H](N)C(C)C)C(C)C)C(=O)O` [JUNV L381-395], 0.21 nM; in that of `CC[C@H](C)[C@H](NC(=O)[C@H](Cc1ccc(O)cc1)NC(=O)[C@@H](NC(=O)[C@H](CC(=O)O)NC(=O)[C@H](CCCNC(=N)N)NC(=O)[C@@H](NC(=O)[C@H](CCCNC(=N)N)NC(=O)[C@H](CCC(N)=O)NC(=O)[C@H](CO)NC(=O)[C@H](CC(C)C)NC(=O)[C@H](CC(C)C)NC(=O)CNC(=O)[C@H](CC(C)C)NC(=O)[C@@H](N)Cc1ccc(O)cc1)[C@@H](C)O)[C@@H](C)CC)C(=O)N[C@@H](CO)C(=O)O` [LASV GPC241-255], 0.29 nM.
